Assay results: patent US9102701B2, “17-hydroxy-17-pentafluoroethyl-estra-4,9(10)-diene-11-ethynylphenyl derivatives, methods for the production thereof and use thereof for treating diseases” (Bayer Intellectual Property GmbH, priority 2009, dated 2015)
In brackets after ≈: the same amount, converted by molar mass.

Assays:
[1] = Metabolic stability in human liver microsomes; format: in vitro ADME; settings: for Predicted clearance Human: predicted in vivo clearance from liver microsomes, well-stirred model, 1 μM; for Predicted Fmax (maximum oral bioavailability) Human: calculated from liver microsome data
Procedure: Determination of Metabolic Stability in Human and Rat Liver Microsomes
Isolated Human Liver Microsomes (HLM) were Used to Assess the Metabolic Stability of compounds of general formula I.
The incubations were conducted with 2.4 ml of HLM solution (protein content 0.5 mg/ml), 30 μl of the test compound (final concentration 1 μM) and 0.6 ml of the cofactor mixture (═NADPH-generating system composed of 3 IU glucose-6-phosphate dehydrogenase, 14.6 mg glucose-6-phosphate, 1.2 mg NADP) at 37° C. in 100 mM phosphate buffer at pH 7.4. Samples were taken at 6 time points (2-60 min) and precipitated with an equal volume of methanol, and the recovery of the test substances used in the supernatant was determined by LC-MS/MS analysis. The half-life of substance degradation determined therefrom was used to calculate what is called the intrinsic clearance of the substance in the liver microsome preparation.

[2] = molecular target: T1, human progesterone receptor A (Homo sapiens, UniProt P06401); assay: Progesterone receptor-antagonistic action in stably transfected SK-N-MC cells, PR-A, MMTV-LUC reporter; format: cell-based; settings: read-out: IC50 PR-A
T1 construct: expressed in transfected cells; host or cells: SK-N-MC human neuroblastoma cells, stably transfected with pRChPR-A-neo and pMMTV-LUC
T1 sequence (P06401 1-769 isoform P06401-2): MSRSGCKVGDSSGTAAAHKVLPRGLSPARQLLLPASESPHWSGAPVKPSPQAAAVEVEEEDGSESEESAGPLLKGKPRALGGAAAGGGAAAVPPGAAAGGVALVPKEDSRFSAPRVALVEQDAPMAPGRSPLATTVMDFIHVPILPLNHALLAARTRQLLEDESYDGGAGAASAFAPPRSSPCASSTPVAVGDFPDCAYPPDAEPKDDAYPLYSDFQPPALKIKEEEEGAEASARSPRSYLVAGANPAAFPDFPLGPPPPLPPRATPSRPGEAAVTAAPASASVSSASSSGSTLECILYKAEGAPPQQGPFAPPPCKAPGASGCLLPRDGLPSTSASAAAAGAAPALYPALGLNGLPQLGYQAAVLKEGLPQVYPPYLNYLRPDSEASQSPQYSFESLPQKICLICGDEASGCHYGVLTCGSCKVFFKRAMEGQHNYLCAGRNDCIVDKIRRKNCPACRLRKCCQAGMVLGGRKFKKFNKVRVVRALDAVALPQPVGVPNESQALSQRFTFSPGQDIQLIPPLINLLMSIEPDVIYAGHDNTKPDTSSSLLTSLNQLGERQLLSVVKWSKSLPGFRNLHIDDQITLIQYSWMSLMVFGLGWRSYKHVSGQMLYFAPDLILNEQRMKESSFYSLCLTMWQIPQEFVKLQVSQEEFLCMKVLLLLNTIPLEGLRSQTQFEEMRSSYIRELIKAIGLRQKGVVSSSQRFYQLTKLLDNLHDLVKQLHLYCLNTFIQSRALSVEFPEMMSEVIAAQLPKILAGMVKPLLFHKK
Procedure, shortened: (§1)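 SK-N-MC neuroblastoma cells stably expressing human PR-A or PR-B plus MMTV-LUC reporter, treated 24 h with compound (0.01 nmol/l upward). Antagonism measured against 0.1 nmol/l promegestone; luciferase in lysates as RLU, given as % efficacy and IC50 (agonism as EC50).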

[3] = molecular target: T2, human progesterone receptor B (Homo sapiens, UniProt P06401); assay: Progesterone receptor-antagonistic action in stably transfected SK-N-MC cells, PR-B, MMTV-LUC reporter; format: cell-based; settings: read-out: IC50 PR-B
T2 construct: expressed in transfected cells; host or cells: SK-N-MC human neuroblastoma cells, stably transfected with pRChPR-B-neo and pMMTV-LUC
T2 sequence (P06401 1-933): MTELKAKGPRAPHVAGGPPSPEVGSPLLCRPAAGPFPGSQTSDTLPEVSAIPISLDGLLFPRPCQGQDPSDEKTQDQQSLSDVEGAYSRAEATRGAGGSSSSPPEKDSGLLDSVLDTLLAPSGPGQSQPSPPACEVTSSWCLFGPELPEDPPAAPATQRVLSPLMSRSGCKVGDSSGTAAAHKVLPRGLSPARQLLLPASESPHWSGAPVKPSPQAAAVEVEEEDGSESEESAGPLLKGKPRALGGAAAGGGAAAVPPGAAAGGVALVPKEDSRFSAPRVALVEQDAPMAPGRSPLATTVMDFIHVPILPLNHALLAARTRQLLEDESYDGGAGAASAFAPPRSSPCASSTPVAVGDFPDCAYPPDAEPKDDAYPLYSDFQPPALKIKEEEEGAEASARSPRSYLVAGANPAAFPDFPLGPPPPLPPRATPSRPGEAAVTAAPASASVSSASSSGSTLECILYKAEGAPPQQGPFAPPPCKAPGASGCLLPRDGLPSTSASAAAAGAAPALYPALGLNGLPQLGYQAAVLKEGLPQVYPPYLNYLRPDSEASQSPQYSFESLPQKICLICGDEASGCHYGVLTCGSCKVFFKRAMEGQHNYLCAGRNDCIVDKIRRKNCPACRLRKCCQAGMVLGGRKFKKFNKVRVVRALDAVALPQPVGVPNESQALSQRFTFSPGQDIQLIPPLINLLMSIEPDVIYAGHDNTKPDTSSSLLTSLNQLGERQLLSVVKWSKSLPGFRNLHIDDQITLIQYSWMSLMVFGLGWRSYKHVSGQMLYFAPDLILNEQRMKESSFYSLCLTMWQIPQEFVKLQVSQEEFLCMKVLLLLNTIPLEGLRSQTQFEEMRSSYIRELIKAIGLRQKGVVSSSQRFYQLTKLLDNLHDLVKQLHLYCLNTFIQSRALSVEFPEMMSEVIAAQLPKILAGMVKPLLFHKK
Procedure, shortened: as §1

pregnant rats = assay: Abortion test on female rats; format: in vivo; settings: d5-d7 p.c., autopsy d9 p.c.
Procedure: Abortion Test on Female Rats
The action of progesterone and of the progesterone receptor is a fundamental precondition for successful pregnancy or gestation in mammals. The progesterone-antagonistic action of the inventive compounds was tested on pregnant rats (6 rats per group) on days 5 to 7 post coitum under conventional housing and feeding conditions.
After successful mating, the pregnant animals (presence of sperm in the vaginal smear on day 1 of pregnancy=d1 p.c.) were randomized and divided into the treatment group and the control group. The animals then each received subcutaneously or orally 0.15; 0.5; 1.5 or 5 mg/kg of the test compound or 1.0 ml/kg of vehicle (benzyl benzoate/castor oil: 1+4 [v/v]) daily from day 5 to day 7 (d5−d7 p.c.).
Autopsy was conducted on day 9 (d9 p.c.). As a characteristic of progesterone receptor-antagonistic action, the uterus was examined for the presence of nidation sites. Complete absence, or else the presence of pathological, haemorrhagic or otherwise abnormal nidation sites, on day 9 (d9 p.c.) was considered as abortion.

[4] = Solubility in aqueous medium at pH 7.4; format: physicochemical; settings: for solubility: aqueous medium, pH 7.4, aqueous buffer; for solubility (in words): aqueous medium under physiological conditions

| Structure (SMILES) | Predicted clearance Human [1] | IC50 [2] | IC50 [3] | solubility [4] | Predicted Fmax (maximum oral bioavailability) Human [1] | solubility (in words) [4] | Abortion rate (pregnant rats; daily dose 0.5 mg/kg p.o.) | Abortion rate (pregnant rats; daily dose 1.5 mg/kg p.o.) | Abortion rate (pregnant rats; daily dose 5.0 mg/kg p.o.) |
| --- | --- | --- | --- | --- | --- | --- | --- | --- | --- |
| C[C@]12C[C@H](c3ccc(C#CCO)cc3)C3=C4CCC(=O)C=C4CC[C@H]3[C@@H]1CC[C@@]2(O)C(F)(F)C(F)(F)F [Example 1, (8S,11R,13S,14S,17S)-17-hydroxy-11-[4-(3-hydroxyprop-1-yn-1-yl)phenyl]-13-methyl-17-pentafluoroethyl-1,2,6,7,8,11,12,13,14,15,16,17-dodecahydrocyclopenta[a]phenanthren-3-one] | 5.33 mL/min/kg | 0.097 nM | 0.11 nM | 13 µg/mL (≈ 25 µM) |  |  | 100% | 100% | 100% |
| C[C@]12C[C@H](c3ccc(C#CCOCCO)cc3)C3=C4CCC(=O)C=C4CC[C@H]3[C@@H]1CC[C@@]2(O)C(F)(F)C(F)(F)F [Example 11, (8S,11R,13S,14S,17S)-17-hydroxy-11-{4-[3-(2-hydroxyethoxy)prop-1-yn-1-yl]-phenyl}-13-methyl-17-pentafluoroethyl-1,2,6,7,8,11,12,13,14,15,16,17-dodecahydrocyclopenta[a]phenanthren-3-one] | 8.17 mL/min/kg | 0.32 nM | 1 nM | 30 µg/mL (≈ 53.1 µM) | 63% | improved solubility |  |  |  |
| C[C@]12C[C@H](c3ccc(C#C/C=C/c4cccc(C(=O)O)c4)cc3)C3=C4CCC(=O)C=C4CCC3C1CC[C@@]2(O)C(F)(F)C(F)(F)F (stereo partly drawn) [Example 13A, 3-{(E)-4-[4-((8S,11R,13S,14S,17S)-17-hydroxy-13-methyl-3-oxo-17-pentafluoroethyl-2,3,6,7,8,11,12,13,14,15,16,17-dodecahydro-1H-cyclopenta[a]phenanthren-1′-yl)phenyl]but-1-en-3-ynyl}benzoic acid] | 5.17 mL/min/kg | 0.1 nM | 0.2 nM | 148 µg/mL (≈ 232 µM) |  | improved solubility |  |  |  |
| CCNC(=O)NCC#Cc1ccc([C@H]2C[C@@]3(C)C(CC[C@@]3(O)C(F)(F)C(F)(F)F)C3CCC4=CC(=O)CCC4=C32)cc1 (stereo partly drawn) [Example 31, 1-ethyl-3-{3-[4-((8S,11R,13S,14S,17S)-17-hydroxy-13-methyl-3-oxo-17-pentafluoroethyl-2,3,6,7,8,11,12,13,14,15,16,17-dodecahydro-1H-cyclopenta[a]phenanthren-1′-yl)phenyl]prop-2-ynyl}urea] | 18.8 mL/min/kg | 0.08 nM | 0.1 nM | 10 µg/mL (≈ 16.9 µM) | 15% |  |  |  |  |
| C[C@]12C[C@H](c3ccc(C#CCNC(=O)Nc4ccccc4)cc3)C3=C4CCC(=O)C=C4CC[C@H]3[C@@H]1CC[C@@]2(O)C(F)(F)C(F)(F)F [Example 34, 1-{3-[4-((8S,11R,13S,14S,17S)-17-hydroxy-13-methyl-3-oxo-17-pentafluoroethyl-2,3,6,7,8,11,12,13,14,15,16,17-dodecahydro-1H-cyclopenta[a]phenanthren-11-yl)phenyl]prop-2-ynyl}-3-phenylurea] | 20.2 mL/min/kg | 0.1 nM | 0.1 nM | 7 µg/mL (≈ 11 µM) | 9% |  |  |  |  |
| C[C@]12C[C@H](c3ccc(C#CCNC(=O)Nc4ccc(F)cc4)cc3)C3=C4CCC(=O)C=C4CC[C@H]3[C@@H]1CC[C@@]2(O)C(F)(F)C(F)(F)F [Example 36, 1-{3-[4-((8S,11R,13S,14S,17S)-17-hydroxy-13-methyl-3-oxo-17-pentafluoroethyl-2,3,6,7,8,11,12,13,14,15,16,17-dodecahydro-1H-cyclopenta[a]phenanthren-11-yl)phenyl]prop-2-ynyl}-3-(4-fluorophenyl)urea] | 10 mL/min/kg | 0.1 nM | 0.2 nM | 4 µg/mL (≈ 6.09 µM) | 55% |  |  |  |  |

The next lines start with results.

| Predicted clearance Human [1] | IC50 [2] | IC50 [3] | solubility [4] | Predicted Fmax (maximum oral bioavailability) Human [1] | solubility (in words) [4] | Structure (SMILES) | Abortion rate (pregnant rats; daily dose 0.5 mg/kg p.o.) | Abortion rate (pregnant rats; daily dose 1.5 mg/kg p.o.) | Abortion rate (pregnant rats; daily dose 5.0 mg/kg p.o.) |
| --- | --- | --- | --- | --- | --- | --- | --- | --- | --- |
| 14.7 mL/min/kg | 0.1 nM | 0.1 nM | 5 µg/mL (≈ 8.02 µM) | 34% |  | C[C@]12C[C@H](c3ccc(C#C/C=N/OCc4ccccc4)cc3)C3=C4CCC(=O)C=C4CCC3C1CC[C@@]2(O)C(F)(F)C(F)(F)F (stereo partly drawn) [Example 24A, (E)-[4-((8S,11R,13S,14S,17S)-17-hydroxy-13-methyl-3-oxo-17-pentafluoroethyl-2,3,6,7,8,11,12,13,14,15,16,17-dodecahydro-1H-cyclopenta[a]phenanthren-1′-yl)phenyl]propynal O-benzyl oxime] |  |  |  |
| 11.7 mL/min/kg | 0.01 nM | 0.08 nM | 5 µg/mL (≈ 8.9 µM) | 47% |  | CCO/N=C/C#Cc1ccc([C@H]2C[C@@]3(C)[C@@H](CC[C@@]3(O)C(F)(F)C(F)(F)F)[C@@H]3CCC4=CC(=O)CCC4=C32)cc1 [Example 25A, (E)-[4-((8S,11R,13S,14S,17S)-17-hydroxy-13-methyl-3-oxo-17-pentafluoroethyl-2,3,6,7,8,11,12,13,14,15,16,17-dodecahydro-1H-cyclopenta[a]phenanthren-1′-yl)phenyl]propynal O-ethyl oxime] |  |  |  |
